tested on: RUP40 transcript in neonatal rat ventricular myocytes (NRVMs); test: RT-PCR of RUP40 transcript in neonatal rat ventricular myocytes; assay type: cell-based; conditions: 24 hours following addition to media, FIG. 4
Method: Neonatal rat ventricular myocytes (NRVMs) were isolated and cultured as described previously [Adams, J W et al., J Biol Chem (1996) 271:1179-86]. Briefly, hearts were obtained from 1- to 2-day old Sprague-Dawley rat pups and digested with collagenase, and myocytes were purified by passage through a Percoll gradient. Cells were plated onto tissue culture dishes precoated with 1% gelatin and maintained overnight in 4:1 DMEM/medium-199 supplemented with 10% horse serum, 5% fetal calf serum, and antibiotics (100 units/ml penicillin and 100 μg/ml streptomycin. After 18 hours in plating medium, myocytes were washed with maintenance medium (DMEM/medium 199 plus antibiotics) to remove dead cells and debris and refreshed with maintenance medium for the duration of the experiment.
Total RNA isolated from NRVMs and fibroblasts as described above was used as a template for generation of reverse transcribed DNA (RT-DNA) using the RT for PCR kit (Becton Dickinson, Franldin, N.J.) according to manufacturer's instructions. RUP40 expression was detected in RT-DNA samples by PCR. PCR conditions were: 96° C. or 2 min; 30 cycles of 96° C. for 30 sec, 55° C. for 30 sec, 72° C. for 2 min; 72° C. for 10 min.
The amplified rat RUP40 DNA product is of size 403 base pairs. G3PDH amplifiers (Becton Dickinson, Franldin, N.J.) were added to each PCR reaction as an internal control.

| Compound | RUP40 transcript levels in the myocytes |
| --- | --- |
| CNC[C@H](O)c1cccc(O)c1 [PE, phenylephrine] | remain elevated |
| prostaglandin F2 alpha [PG] | remain elevated |
| CCCCCCCCCCCCCC(=O)O[C@@H]1[C@@H](C)[C@@]2(O)[C@@H](C=C(CO)C[C@]3(O)C(=O)C(C)=C[C@@H]23)[C@@H]2C(C)(C)[C@]12OC(C)=O [PMA, phorbol 12-myristate 13-acetate] | drop dramatically |

Reference: patent publication US8017313B2, “Human G protein-coupled receptor and modulators thereof for the treatment of cardiovascular disorders” (Arena Pharmaceuticals, Inc., priority 2003, dated 2011)
